According to publication PMC4199632, “Exploring the Anti-Cancer Activity of Novel Thiosemicarbazones Generated through the Combination of Retro-Fragments: Dissection of Critical Structure-Activity Relationships” (PLoS ONE, 2014):

Experiments:
[1] = test system: HCT116 p53+/+ colon cancer cells; test: Proliferation assay (MTS, 96 h); type: cell-based, human; settings: for IC50: Homo sapiens, HCT-116, 96 h incubation, MTS, mean ±SD (3 experiments); for Therapeutic index NHDF vs. HCT116 p53+/+: NHDF cell IC50 divided by HCT116 p53+/+ IC50
Description: (§1) The human cancer cell types (neuroepithelioma (SK-N-MC), colon cancer (HCT116 with wild-type p53 (p53^+/+)), Burkitt's lymphoma (Raji) and cervical carcinoma (HeLa)) cells and normal human dermal fibroblasts (NHDF) were obtained from the American Type Culture Collection (ATCC, Manassas, VA, USA). HCT116 null p53 (p53^−/−) cells were obtained from the Maria Sklodowska-Curie Memorial Cancer Center and Institute of Oncology, Poland.
(§2) The SK-N-MC cells were cultured in minimum essential medium (MEM; Life Technologies, Grand Island, New York, USA) containing 10% (v/v) fetal bovine serum (FBS; Life Technologies), 1 mM sodium pyruvate (Life Technologies), 1% (v/v) non-essential amino acids (Life Technologies), 2 mM L-glutamine (Life Technologies), 100 U/mL penicillin (Life Technologies), 100 µg/mL streptomycin (Life Technologies) and 0.28 µg/mL fungizone (Bristol Myers Squibb Pharmaceuticals, Montreal, Canada). The HCT116 and NHDF cells were grown in Dulbecco's modified Eagle's medium (DMEM; Sigma-Aldrich) supplemented with 12% (v/v) heat-inactivated FBS (HCT116; Life Technologies) or 15% (v/v) FBS (NHDF; Life Technologies), 100 µg/mL of gentamicin (Polfa Warszawa S.A., Warsaw, Poland), 100 µg/mL of streptomycin (Polfa) and 100 U/mL of penicillin (Polfa). The Raji and HeLa cells were cultured in Roswell Park Memorial Institute medium (RPMI-1640; Sigma-Aldrich) with the addition of 10% (v/v) heat-inactivated FBS (Life Technologies) and the supplements described for SK-N-MC cells above. All cell lines were cultured under standard conditions at 37°C in a humidified atmosphere at 5% CO2 and were subcultured every 3–4 days as required.
(§3) The cells were seeded in 96-well plates (SK-N-MC: 1.5×10^4 cells/well; HeLa: 5.0×10^3 cells/well; Raji: 3.0×10^3 cells/well; HCT116: 3.5×10^3 cells/well; NHDF: 3.0×10^3 cells/well) 24 h prior to the addition of the novel compounds. The assays were performed using a 72 h (SK-N-MC, Raji, HeLa) or 96 h (HCT 116, NHDF) incubation period with the agents at 37°C. […] Additionally, DFO and Dp44mT were included as positive controls in all experiments as their activity is well characterized, [42], [50].
(§4) Chelator stock solutions were prepared in DMSO and diluted in media so that the final [DMSO] <0.05%. The results were expressed as a percentage of the control and the resulting IC50 values were calculated using GraphPad Prism 5 (GraphPad Software, Inc., La Jolla, CA, USA). The IC50 was defined as the concentration necessary to reduce the absorbance to 50% of the untreated control. Each individual compound was tested in triplicate in a single experiment, with each experiment being repeated three times. After incubation of HCT 116 and NHDF cells with the tested compounds, 20 µL of the CellTiter 96 Aqueous One Solution - MTS (Promega, Madison, WI, USA) solution was added to each well (with 100 µL of DMEM without phenol red) and incubated for 1 h/37°C. The optical density of the samples was analyzed at 490 nm.

[2] = test system: HCT116 p53−/− colon cancer cells; test: Proliferation assay (MTS, 96 h); type: cell-based, human; settings: for IC50: 96 h incubation, MTS, mean ±SD (3 experiments); for Therapeutic index NHDF vs. HCT116 p53−/−: NHDF cell IC50 divided by HCT116 p53−/− IC50
Description: as §1, §2, §3, §4

[3] = test system: Raji Burkitt's lymphoma cells; test: Proliferation assay (MTT, 72 h); type: cell-based; settings: Homo sapiens, 72 h incubation, mean ±SD (3 experiments)
Description: as §1, §2, §3, §4
(§5) MTT (3-[4,5-dimethylthiazol-2-yl]-2,5-diphenyltetrazolium bromide) was used to evaluate the anti-proliferative effects of the chelators in SK-N-MC and Raji cells. Following incubation with the investigated compounds, 10 µL of MTT (5 mg/mL in PBS; Sigma-Aldrich) was added to each well. After a 2 h (SK-N-MC) or 4 h (Raji) incubation, the plates were centrifuged, and the cells were lysed with 100 µL of 10% SDS-50% isobutanol in 0.01 M HCl (SK-N-MC) or DMSO (Raji). The absorbance was measured at 570 nm. The anti-proliferative effects of these novel agents on HeLa cells were estimated using crystal violet staining (0.5% crystal violet solution for 10 min). Finally, the wells were rinsed with water and the cells were lysed with 2% SDS. The optical density of the samples was analyzed at 595 nm.

[4] = test system: SK-N-MC neuroepithelioma cells; test: Proliferation assay (MTT, 72 h); type: cell-based; settings: Homo sapiens, 72 h incubation, mean ±SD (3 experiments)
Description: as §1, §2, §3, §4, §5

[5] = test system: HeLa cervical carcinoma cells; test: Proliferation assay (crystal violet, 72 h); type: cell-based; settings: Homo sapiens, 72 h incubation, mean ±SD (3 experiments)
Description: as §1, §2, §3, §4, §5

[6] = test system: normal human dermal fibroblast (NHDF) cells; test: Proliferation assay (MTS, 96 h), normal mortal cells; type: cell-based; settings: 96 h incubation, mean ±SD (3 experiments)
Description: as §1, §2, §3, §4

[7] = Ascorbate oxidation assay (iron complexes); type: biochemical; settings: iron complex, IBE 3; FeIII 10 µM, ascorbate 100 µM
Description: The ability of the iron complexes of the novel ligands to mediate the oxidation of the physiological substrate, ascorbate, was examined using established methods, [18], [22], [52], [53]. Ascorbic acid (100 µM) was prepared immediately prior to each experiment and was incubated in the presence of Fe^III (10 µM; as FeCl3), the chelator (1–60 µM) and a 50-fold molar excess of citrate (500 µM). The absorbance at 265 nm was measured after 10 and 40 min and the difference in absorbance at these time points was calculated. The results of these experiments were expressed as iron-binding equivalents (IBE) due to the different denticity of the chelators examined. The chelators, Dp44mT, DFO and ethylenediaminetetraacetic acid (EDTA) were used as controls as the ability of their iron complexes to oxidize ascorbate has been extensively characterized, [15], [52], [53].
The ability of the iron complexes of the novel TSCs to catalyze the oxidation of the physiological substrate, ascorbate, was important to assess as redox cycling may play a critical role in their anti-proliferative activity, [15], [18], [52], [53]. Thus, the oxidation of ascorbate mediated by the iron complexes of series 1–6 were examined in comparison to the iron complexes of the control compounds, DFO, EDTA and Dp44mT, as the ability of the latter to oxidize ascorbate is well characterized, [15], [52], [53], [68]. The results were expressed as a percentage of the control (no chelator) at iron-binding equivalents (IBEs) of 0.1 (excess “free” iron), 1 (iron-chelator complexes with a fully filled coordination sphere), or 3 (excess free chelator), due to the different denticity of the chelators examined (Fig. 10).
Figure 10 Effect of the iron complexes of (A) series 1, (B) series 2, (C) series 3, (D) series 4, (E) series 5 and (F) series 6 chelators, relative to DFO, Dp44mT and EDTA, on ascorbate oxidation. Chelators at iron-binding equivalent (IBE) ratios of 0.1, 1, and 3 were incubated in the presence of Fe^III (10 µM) and ascorbate (100 µM). The UV-Vis absorbance at 265 nm was recorded after 10 and 40 min, and the difference between the time points was calculated. Results are mean ±SD (3 experiments).

[8] = test system: HCT116 p53+/+, HCT116 p53−/−, Raji, HeLa, SK-N-MC and NHDF cells; test: Proliferation assay, ranges stated over several cell-types; type: cell-based, human; settings: for IC50: Homo sapiens, HCT-116, range over HCT116 p53+/+ and p53−/− cells and over the compounds named, read-out: IC50 range in HCT116 cells; for Therapeutic index, NHDF relative to HCT116 cells: range over HCT116 p53+/+ and p53−/− and over the compounds named
Description: as §1, §2, §3, §4, §5

SK-N-MC cells = test: Inhibition of cellular 59Fe uptake from 59Fe2-Tf; type: cell-based, human; settings: chelator 25 µM, 59Fe2-Tf 0.75 µM, 3 h/37°C
Description: The iron transport protein, Tf (Sigma-Aldrich), was labeled with ^59Fe (PerkinElmer Life and Analytical Sciences, Boston, MA) to form ^59Fe2-Tf using standard methods, [7]. Unbound ^59Fe was removed by passage through a Sephadex G25 column and was followed by exhaustive dialysis, [7].
The ability of the chelators to prevent the cellular uptake of ^59Fe from ^59Fe2-Tf was examined using standard methods, [14], [17], [18], [50]. A monolayer of SK-N-MC cells was incubated with medium containing ^59Fe2-Tf (0.75 µM) and the chelator (25 µM) for 3 h at 37°C. The medium was then removed and the cells were washed four times with ice-cold PBS. The cells were then incubated for 30 min at 4°C with the general protease, Pronase (1 mg/mL; Sigma-Aldrich), to remove membrane-bound ^59Fe. The cells were removed using a plastic spatula and centrifuged at 14,000 rpm/1 min to separate internalized from membrane-bound ^59Fe. The cell pellet was resuspended in 1 mL of PBS and the internalized ^59Fe was measured on a γ-scintillation counter. Internalized ^59Fe uptake was calculated as a percentage of the control (medium alone). Again, the novel ligands were compared to DFO and Dp44mT as their ability to inhibit cellular ^59Fe uptake has been extensively characterized using SK-N-MC cells, [14], [17], [18], [50].
Figure 8 Effect of (A) series 1, (B) series 2, (C) series 3, (D) series 4, (E) series 5 and (F) series 6 chelators, relative to the controls DFO and Dp44mT, on ^59Fe uptake from ^59Fe-transferrin by SK-N-MC cells. Cells were incubated for 3 h/37°C with ^59Fe-transferrin (0.75 µM) in the presence or absence of the chelators (25 µM). At the end of this incubation, cells were washed 4 times with ice-cold PBS. Internalization of ^59Fe was assessed by incubation for 30 min/4°C with the protease, Pronase (1 mg/mL). Cellular ^59Fe was then assessed using a γ-scintillation counter. Results are mean ±SD (3 experiments).

SMILES | IC50 [1] | IC50 ([2]; Homo sapiens, HCT-116, 96 h) | IC50 [3] | IC50 [4] | IC50 [5] | IC50 [8] | IC50 [2] | Therapeutic index NHDF vs. HCT116 p53+/+ [1] | Therapeutic index NHDF vs. HCT116 p53−/− [2] | IC50 ([6]; Homo sapiens, NHDF, 96 h) | Ascorbate oxidation (% of the control) [7] | Therapeutic index, NHDF relative to HCT116 cells [8] | IC50 [6] | Internalized 59Fe uptake from 59Fe2-Tf (% of the control) (SK-N-MC cells) | Decrease in anti-proliferative efficacy, HCT116 p53+/+ vs HCT116 p53−/− ([8]; comparison of IC50 in HCT116 p53+/+ and p53−/− cells)
S=C(NN=C(c1ccccn1)c1ccccn1)N1CCN(c2ccccc2)CC1 [1b] | 0.8 ± 0.1 nM | 0.8 ± 0.1 nM | 0.3 ± 0.03 nM | 50 ± 10 nM | 570 ± 160 nM | 0.8 to 90 nM |  | 2 | 2 | 1.7 ± 0.7 nM | 200–265% | 2 |  |  | 
S=C(NN=C(c1ccccn1)c1ccccn1)N1CCN(c2ccccn2)CC1 [1d, Z-N′-(di(pyridin-2-yl)methylene)-4-(pyridin-2-yl)piperazine-1-carbothiohydrazide] | 2 nM | 9 ± 1 nM | 1.3 ± 0.1 nM | 20 ± 10 nM | 30 ± 20 nM | 2 to 17 nM |  | 80 | 18 | 160 to 10600 nM | 200–265% | 18–2650 | 160 ± 40 nM |  | 
Oc1cccc2ccc(/C=N/NC(=S)N3CCN(c4cnccn4)CC3)nc12 [3e] | 50 ± 30 nM | 5000 nM | 40 ± 20 nM | > 6250 nM | 2390 ± 20 nM |  | 5010 ± 2550 nM |  |  | 12100 ± 3600 nM |  |  |  |  | 100 fold
CN(C(=S)N/N=C/c1ccc2cccc(O)c2n1)C1CCCCC1 [3f] | 3110 ± 1920 nM | 4350 ± 1350 nM | 10 nM | > 6250 nM | 2570 ± 460 nM |  |  |  |  | 5360 ± 1990 nM |  |  |  | 3.6–11.5% | 

Further lines, with some results ahead:

IC50 [1] | IC50 ([2]; Homo sapiens, HCT-116, 96 h) | IC50 [3] | IC50 [4] | IC50 [5] | IC50 [8] | IC50 [2] | SMILES | Therapeutic index NHDF vs. HCT116 p53+/+ [1] | Therapeutic index NHDF vs. HCT116 p53−/− [2] | IC50 ([6]; Homo sapiens, NHDF, 96 h) | Ascorbate oxidation (% of the control) [7] | Therapeutic index, NHDF relative to HCT116 cells [8] | IC50 [6] | Internalized 59Fe uptake from 59Fe2-Tf (% of the control) (SK-N-MC cells) | Decrease in anti-proliferative efficacy, HCT116 p53+/+ vs HCT116 p53−/− ([8]; comparison of IC50 in HCT116 p53+/+ and p53−/− cells)
2030 ± 1240 nM | 5840 ± 1650 nM | 240 ± 40 nM | 2870 ± 1250 nM | 860 ± 90 nM |  |  | S=C(N/N=C/c1cnc2ccccc2n1)N1CCOCC1 [5c] |  |  | 11600 ± 1800 nM |  |  |  | 3.6–11.5% | 
15400 ± 1700 nM | 16400 ± 3100 nM | 3790 ± 80 nM | > 6250 nM | 18200 ± 1300 nM |  |  | Oc1ccccc1/C=N/NC(=S)N1CCOCC1 [6c] |  |  | > 25000 nM |  |  |  | 3.6–11.5% | 
